What was measured:
[1] = target: Recombinant human Cbl-b (aa 36-427) (Homo sapiens, UniProt Q13191); assay: Cbl-b Biochemical Assay (TR-FRET); details: read-out: TR-FRET hCbl-b IC50
[2] = target: T1, Recombinant human c-Cbl (aa 47-435) (Homo sapiens, UniProt P22681); assay: c-Cbl Biochemical Assay (TR-FRET); details: hc-Cbl Biochemical Assay (TR-FRET); read-out: TR-FRET hcCbl IC50
T1 sequence (P22681 47-435): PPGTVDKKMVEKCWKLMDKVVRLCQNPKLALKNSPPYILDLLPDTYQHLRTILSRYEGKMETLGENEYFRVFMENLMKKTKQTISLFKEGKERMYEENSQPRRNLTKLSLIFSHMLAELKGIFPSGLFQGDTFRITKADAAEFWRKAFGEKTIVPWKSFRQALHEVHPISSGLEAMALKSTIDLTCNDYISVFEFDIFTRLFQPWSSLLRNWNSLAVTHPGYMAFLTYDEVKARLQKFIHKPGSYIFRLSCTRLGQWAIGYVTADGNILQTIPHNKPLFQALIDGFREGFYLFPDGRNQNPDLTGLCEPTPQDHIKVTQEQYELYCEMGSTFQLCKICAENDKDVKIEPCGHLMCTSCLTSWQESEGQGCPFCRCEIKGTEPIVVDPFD

[3] = tested on: Jurkat (clone E6-1) cells with NFAT luciferase reporter; assay: Jurkat reporter assay (NFAT Luciferase); type: cell-based; details: Homo sapiens; Jurkat NFAT luciferase reporter cells, anti-CD3 stimulation, 6 hr; read-out: Jurkat NFAT EC50

Recombinant human Cbl-b (aa 36-427), sequence (Q13191 36-427): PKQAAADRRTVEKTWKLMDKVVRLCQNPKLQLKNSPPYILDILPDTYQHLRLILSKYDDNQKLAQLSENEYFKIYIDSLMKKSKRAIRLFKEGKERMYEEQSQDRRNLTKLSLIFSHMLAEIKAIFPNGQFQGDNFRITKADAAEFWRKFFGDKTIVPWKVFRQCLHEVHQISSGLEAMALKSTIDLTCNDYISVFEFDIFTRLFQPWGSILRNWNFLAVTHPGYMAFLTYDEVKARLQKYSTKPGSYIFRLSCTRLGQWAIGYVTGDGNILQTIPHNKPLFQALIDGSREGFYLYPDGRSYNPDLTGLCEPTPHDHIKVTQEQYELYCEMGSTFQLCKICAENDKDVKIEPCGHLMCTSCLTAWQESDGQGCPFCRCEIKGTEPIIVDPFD

| Structure (SMILES) | IC50 [1] [nM] | IC50 [2] [nM] | EC50 [3] [nM] |
| --- | --- | --- | --- |
| CON(C)C(=O)c1cc(C(F)(F)F)c2oc(-c3cccc(-c4ccc(F)cc4-c4nncn4C)c3)nc2c1 [DJ-2, 2-(4′-Fluoro-2′-(4-methyl-4H-1,2,4-triazol-3-yl)-[1,1′-biphenyl]-3-yl)-N-methoxy-N-methyl-7-(trifluoromethyl)benzo[d]oxazole-5-carboxamide] | < 200 | 200 to 1000 | 1000 to 10000 |
| Cn1cnnc1-c1cc(F)ccc1-c1cccc(-c2nc3cc(CNC[C@H](O)C(F)(F)F)cc(C(F)(F)F)c3o2)c1 [DM-2, (S)-1,1,1-Trifluoro-3-(((2-(4′-fluoro-2′-(4-methyl-4H-1,2,4-triazol-3-yl)-[1,1′-biphenyl]-3-yl)-7-(trifluoromethyl)benzo[d]oxazol-5-yl)methyl)amino)propan-2-ol] | < 200 | < 200 | < 200 |
| Cn1cnnc1-c1cc(F)ccc1-c1cccc(-c2nc3cc(CNCC(C)(C)C#N)cc(C(F)(F)F)c3o2)c1 [DN-2, 3-(((2-(4′-fluoro-2′-(4-methyl-4H-1,2,4-triazol-3-yl)-[1,1′-biphenyl]-3-yl)-7-(trifluoromethyl)benzo[d]oxazol-5-yl)methyl)amino)-2,2-dimethylpropanenitrile] | < 200 | < 200 | 200 to 1000 |
| Cn1cnnc1-c1cc(F)ccc1-c1cccc(-c2nc3cc(CN[C@@H]4CCC[C@@]4(C)O)cc(C(F)(F)F)c3o2)c1 [DP-5, (1R,2R)-2-(((2-(4′-Fluoro-2′-(4-methyl-4H-1,2,4-triazol-3-yl)-[1,1′-biphenyl]-3-yl)-7-(trifluoromethyl)benzo[d]oxazol-5-yl)methyl)amino)-1-methylcyclopentan-1-ol] | < 200 | < 200 | 200 to 1000 |
| Cn1cnnc1-c1cc(F)ccc1-c1cccc(-c2nc3cc(CN[C@@H]4CCC[C@]4(C)O)cc(C(F)(F)F)c3o2)c1 [DP-6, (1S,2R)-2-(((2-(4′-Fluoro-2′-(4-methyl-4H-1,2,4-triazol-3-yl)-[1,1′-biphenyl]-3-yl)-7-(trifluoromethyl)benzo[d]oxazol-5-yl)methyl)amino)-1-methylcyclopentan-1-ol] | < 200 | < 200 | < 200 |
| Cn1cnnc1-c1cc(F)ccc1-c1cccc(-c2nc3cc(CNCC4(O)CCC4)ccc3o2)c1 [DQ-1, 1-((((2-(4′-Fluoro-2′-(4-methyl-4H-1,2,4-triazol-3-yl)-[1,1′-biphenyl]-3-yl)benzo[d]oxazol-5-yl)methyl)amino)methyl)cyclobutan-1-ol] | < 200 | < 200 | < 200 |
| Cn1cnnc1-c1cc(F)ccc1-c1cccc(-c2nc3cc(CN4CC[C@@H](C#N)C4)cc(C(F)(F)F)c3o2)c1 [DR-2, (R)-1-((2-(4′-Fluoro-2′-(4-methyl-4H-1,2,4-triazol-3-yl)-[1,1′-biphenyl]-3-yl)-7-(trifluoromethyl)benzo[d]oxazol-5-yl)methyl)pyrrolidine-3-carbonitrile] | < 200 | < 200 | 200 to 1000 |
| Cn1cnnc1-c1cc(F)ccc1-c1cccc(-c2nc3cc(CNC4CCCC4)cc(C(F)(F)F)c3o2)c1 [DS-2, N-((2-(4′-Fluoro-2′-(4-methyl-4H-1,2,4-triazol-3-yl)-[1,1′-biphenyl]-3-yl)-7-(trifluoromethyl)benzo[d]oxazol-5-yl)methyl)cyclopentanamine] | < 200 | < 200 | < 200 |
| Cn1cnnc1-c1cc(F)ccc1-c1cccc(-c2nc3cc(CN[C@@H]4CC[C@@H]4O)cc(C(F)(F)F)c3o2)c1 [DU-2, (1S,2R)-2-(((2-(4′-Fluoro-2′-(4-methyl-4H-1,2,4-triazol-3-yl)-[1,1′-biphenyl]-3-yl)-7-(trifluoromethyl)benzo[d]oxazol-5-yl)methyl)amino)cyclobutan-1-ol] | < 200 | < 200 | < 200 |
